Reference: US4264734A, “Process for producing antibiotic desacetyl 890A10” (Merck & Co., Inc., priority 1979, dated 1981)

Columns and labels:
[1] = test system: Vibrio percolans ATCC 8461; assay: Assay for 890 Assay Units, agar plate disc-diffusion method, cephaloridine as standard; assay type: cell-based; settings: 25 mm. zone of inhibition on a 5 ml. plate
Procedure: II. Assay Procedure for Determining "890 Assay Units" A conventional agar plate disc-diffusion method is employed using Vibrio percolans ATCC 8461 as tester organism. Cephaloridine is employed as a standard. Plates containing Vibrio percolans ATCC 8461 are prepared as follows. A culture of Vibrio percolans ATCC 8461 is incubated in nutrient broth-yeast extract overnight on a rotary shaker at 28° C. and then diluted to a density of 60% transmittance at 660 nm. A 33.2 ml. portion of this diluted culture is added to 1 liter of a medium composed of nutrient agar plus 0.2% yeast extract maintained at 46° C. The inoculated agar-containing medium is poured into 100×15 mm. plastic-petri dishes, 10 ml. per dish, chilled, and maintained at 2°-4° C. for up to 5 days before use. The concentration of cephaloridine which is equivalent to 1 unit/ml. of 890A1 is determined by assay on plates prepared as above, but containing 5 ml. of inoculated medium per plate, as follows. Four concentrations of cephaloridine constitute the standard--3.12, 6.25, 12.5 and 25 mcg per ml. with the 12.5 mcg per ml. as a reference solution. The zone diameters on a 5 ml. plate for the standard are as follows: A unit is defined as the amount of antibiotic per ml. producing a 25 mm. zone of inhibition on a 5 ml. plate as described in section I above. […]

[2] = test system: gram-positive and gram-negative bacteria; assay: Antibacterial activity (general statement); assay type: cell-based; settings: no test values printed
[3] = test system: Staphylococcus aureus ATCC 6538P; assay: Electrophoresis followed by bioactivity on Staphylococcus aureus assay plate; assay type: cell-based; settings: after incubation of 890A10 with cell sonicate and electrophoresis at pH 7.1; 37° C., 18 hours
Procedure: The flasks are shaken at 28° C. on a 220 rpm (2" throw) shaker for 4 days. A 30 ml. portion from each flask is centrifuged for 15 minutes at 8,000 rpm. The supernatant portion is removed, leaving only enough to form a thick suspension of cells and media solids. Half of the suspension is subjected to ultrasonic disruption using a Branson Instrument Model LS-75 Sonifier with a 1/2 inch probe. The input power is set at position No. 4, and four successive 15 second cycles of irradiation are used, while chilling the suspension in ice water during and between disruption. To test for the presence of N-acetyl-890A10 amidohydrolase activity, a 10-μl. portion of the sonicate is mixed with 25 μl. of an 890A10 solution containing 500 μg. per ml. Controls containing antibiotic and buffer alone; and sonicated cells and buffer without antibiotic are also run. After incubation overnight at 28° C., 10 μl. quantities are applied to Schleicher and Schuell No. 2043-B paper. Using 0.03 M potassium phosphate buffer pH 7.1, a voltage gradient of 50 volts/cm. is applied for 30 minutes. The paper is placed on a Staphylococcus aureus ATCC 6538P plate and incubated at 37° C. for 18 hours. […]
The flask is shaken at 28° C. on a 220 rpm (2-inch throw) shaker for four days. […] After incubation overnight at 28° C., 10-μl. quantities are applied to Schleicher & Schuell No. 2043-B paper. […]

[4] = Stability under acidic conditions in aqueous solution; assay type: physicochemical

## O=C(Cc1cccs1)N[C@@H]1C(=O)N2C(C(=O)[O-])=C(C[n+]3ccccc3)CS[C@H]12 [cephaloridine]
[1]
  concentration considered equivalent to 1 unit of 890A1 per ml: 12.5 mcg per ml.

## CC(OS(=O)(=O)O)C1C(=O)N2C(C(=O)O)=C(SCCN)CC12 (centres unmarked) [desacetyl 890A10]
[2]
  antibacterial activity: active against various gram-positive and gram-negative bacteria
[3]
  bioactive spot on Staphylococcus aureus plate: bioactive

## CC(=O)NCCSC1=C(C(=O)O)N2C(=O)C(C(C)OS(=O)(=O)O)C2C1 (centres unmarked) [890A10]
[4]
  stability under acidic conditions: unstable
[3]
  bioactive spot on Staphylococcus aureus plate: bioactive
